Results on 53 compounds are retold here after PubChem BioAssay AID1996.

Converted amounts (≈) assume the structure as drawn. Where only a bound is given, the exact number is not on record here.

For the data set the following is noted: buffer; pH 7.4; 200.0 µM.
What is called solubility (kinetic) is the concentration staying in solution when a stock, usually in DMSO, is diluted into the medium. `COc1ccc(NS(=O)(=O)c2cc(NC(=O)COc3ccccc3)ccc2N2CCOCC2)cc1` yielded a solubility (kinetic) of 3.1 µg/mL (≈ 6.23 µM).
For `CC(=O)Nc1ccc(S(=O)(=O)N(C)CC(=O)NNC(=O)Cc2nc3ccccc3n2C)cc1`, the solubility (kinetic) was greater than 70.9 µg/mL.
The value for `CN(Cc1cn(C)nc1-c1ccccc1F)Cc1nccn1C` was greater than 47 µg/mL; that for `O=C(N/N=C/c1cccnc1)c1cccc(Cl)c1` was greater than 39 µg/mL; that for `N#Cc1cnc(NOCc2ccc(Cl)cc2)nc1` was 7.4 µg/mL (≈ 28.4 µM).
Consider `CCCNC(=O)N1CCC(c2ccc3c(c2)OCO3)CC1`, for which the kinetic solubility was 38.8 µg/mL (≈ 134 µM).
The value for `Cc1cc(C)nc(Nc2ccc(F)cc2)n1` was greater than 32.6 µg/mL.
The value for `Cc1cc(C)cc(NC2=C(N)C(=O)c3ccccc3C2=O)c1` was 0.4 µg/mL (≈ 1.37 µM); that for `Cc1ccc(NS(=O)(=O)c2c(C)noc2C)cc1` was greater than 39.9 µg/mL; that for `CN(C)CCOC(=O)C(c1ccccc1)C1(O)CCCC1.Cl` (stereo not drawn) was greater than 49.2 µg/mL.
Take `CCOC(=O)Cc1c(C)nc(Cc2ccc(OC(C)C)cc2)[nH]c1=O`: the solubility (kinetic) was greater than 51.7 µg/mL.
Take `NC(=O)c1ccc(OCC(=O)N2CCNC2=O)cc1`: the solubility (kinetic) was greater than 39.5 µg/mL.
Then `COc1ccc(S(=O)(=O)NCCc2ccccc2)c2cccnc12`, with greater than 51.4 µg/mL.
Turning to `CN(C)C=NC(=O)c1[nH]c2ccc(Cl)cc2c1-c1ccccc1`, the kinetic solubility worked out at 15.2 µg/mL (≈ 46.7 µM).
The value for `Fc1ccc(NC(=S)Nc2cccc3ccccc23)cc1F` was 29.3 µg/mL (≈ 93.2 µM); that for `COC(=O)c1c(C)[nH]c(C(=O)/C=C/c2ccccc2F)c1C` was 0.8 µg/mL (≈ 2.66 µM).
`[NH-]S(=O)(=O)c1ccccc1.[Na+]` showed a solubility (kinetic) greater than 26.9 µg/mL.
Take `CC(O)c1ccc(OCCN(C)c2ccccn2)cc1` (stereo not drawn): the kinetic solubility is greater than 40.9 µg/mL.
`O=C(c1ccco1)N1CCN(C(=O)N2CCCC2)CC1` yielded a solubility (kinetic) of 38.7 µg/mL (≈ 140 µM).
In turn, `CCCN1CNC(=S)N(c2cccc(C)c2)C1` had a solubility (kinetic) of 37.2 µg/mL (≈ 149 µM).
As for `Cc1ccc(S(=O)(=O)C2(C(=O)NC3CCCCC3C)CC2)cc1` (stereo not drawn), the kinetic solubility is 37.3 µg/mL (≈ 111 µM).
The value for `O=C(Cc1ccc(F)cc1)NCCc1cnc[nH]1` was greater than 37.1 µg/mL; that for `O=C(COC(=O)CC1CCCC1)Nc1ccccc1[N+](=O)[O-]` was 12.1 µg/mL (≈ 39.5 µM); that for `Cc1ccc2cc(C)c(SCC(=O)NCC3CCCO3)nc2c1` (stereo not drawn) was 48.2 µg/mL (≈ 146 µM).
`Nc1ncnc(N2CCc3ccccc32)c1[N+](=O)[O-]` yielded a solubility (kinetic) of 1.8 µg/mL (≈ 7 µM).
In turn, `Cc1ccc(NC(=O)CSc2ncc3ccccn23)cc1C` gave a kinetic solubility of 40.5 µg/mL (≈ 130 µM).
The value for `O=C(Nc1ccc(F)cc1)c1cc2ccccc2o1` was 1.9 µg/mL (≈ 7.44 µM); that for `COc1ccccc1/C=C/C(=O)NC(=S)N1CCN(C)CC1` was greater than 47.9 µg/mL; that for `CCOC(=O)N1CCN(CC(=O)Nc2ccc(F)cc2F)CC1` was greater than 49.1 µg/mL.
`O=C(CN1CCN(c2ccccc2)CC1)N1CCc2ccccc21`: the kinetic solubility was determined as 7 µg/mL (≈ 21.8 µM).
The value for `O=C(Nc1cccc(F)c1)N1CCCCCC1` was greater than 35.4 µg/mL; that for `N#CCCN(C(=O)COC(=O)CCC(=O)c1cccs1)c1ccccc1` was greater than 55.6 µg/mL; that for `COc1cc2ncnc(NCc3ccccc3F)c2cc1OC` was 41.8 µg/mL (≈ 133 µM).
`ONC(=Nc1ccccc1Cl)c1ccccc1Cl` displayed a solubility (kinetic) greater than 42.2 µg/mL.
For `CCN(CC)C(=O)N1c2ccccc2Sc2ccccc21`, the solubility (kinetic) was 2.8 µg/mL (≈ 9.38 µM).
The compound `O=C(O)/C=C/C(=O)Nc1ccc(C(=O)c2ccccc2)cc1` yielded a kinetic solubility greater than 44.3 µg/mL.
`Cc1cc(C(=O)Nc2ccc(N3CCCCC3)cc2)no1` registered a kinetic solubility of 6.8 µg/mL (≈ 23.8 µM).
The value for `Cc1snc(SCc2cccc(Cl)c2)c1C#N` was less than 0.3 µg/mL; that for `Cc1ccc(NC(=O)COC(=O)Cn2cnc3ccccc32)c(C)c1` was 42.4 µg/mL (≈ 126 µM).
For `Clc1nc2c(ccc3ccccc32)[nH]1`, the kinetic solubility is greater than 30.4 µg/mL.
Consider `CC1CCN(C(=O)CCN2C(=O)C3C4C=CC(C4)C3C2=O)CC1` (stereo not drawn), for which the kinetic solubility is greater than 47.5 µg/mL.
Then `CCOc1c(Cl)cc(CNCc2ccccn2)cc1OC.Cl`, with 45.2 µg/mL; and `Cc1noc2ncnc(SCc3ccc(C(F)(F)F)cc3)c12`, with 1.1 µg/mL (≈ 3.38 µM); and `CSc1ncc(CN2CCN(CCC(C)C)C(CCO)C2)cn1` (stereo not drawn), with 41.7 µg/mL (≈ 123 µM).
Then `COc1ccc(C(=O)Nc2ccc3[nH]ccc3c2)cc1`, with greater than 39.9 µg/mL.
The value for `CCOc1ccc(CCNC(=O)c2cnccn2)cc1OCC` was greater than 47.3 µg/mL; that for `CCCCCCn1c(N2CCCC2)nc2c1c(=O)[nH]c(=O)n2C` was greater than 47.9 µg/mL; that for `CCOC(=O)c1c2c3c(cccc3n(C)c1=O)C(=O)c1ccccc1-2` was 2.6 µg/mL (≈ 7.8 µM).
For the compound `CN1C(=O)NC(c2ccc(Cl)cc2)C2=C1CC(C)(C)CC2=O` (stereo not drawn), the kinetic solubility is greater than 47.8 µg/mL.
The value for `Cc1ccc2oc(C(=O)NCc3ccccc3)cc(=O)c2c1` was less than 0.6 µg/mL; that for `CCOc1cc(C#N)ccc1OCC(=O)N1CCc2ccccc2C1` was 45.5 µg/mL (≈ 135 µM).
`CCN(CC)C(=O)COc1ccc2c3c(c(=O)oc2c1)CCCC3` returned a kinetic solubility of 48.1 µg/mL (≈ 146 µM).
With `Cc1ccc(-c2csc3ncn(C(C)C(=O)O)c(=O)c23)cc1` (stereo not drawn), the kinetic solubility is greater than 47.2 µg/mL.
